Measured values: patent US20240158412A1 (Faxian Therapeutics, LLC, priority 2021, published 2024)

biological target: USP7 (Homo sapiens, UniProt Q93009); test: biochemical
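Further: fluorescence intensity readout of USP7 enzymatic activity, reaction incubated 90 min at room temperature.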

Chain of USP7 (Q93009 whole entry): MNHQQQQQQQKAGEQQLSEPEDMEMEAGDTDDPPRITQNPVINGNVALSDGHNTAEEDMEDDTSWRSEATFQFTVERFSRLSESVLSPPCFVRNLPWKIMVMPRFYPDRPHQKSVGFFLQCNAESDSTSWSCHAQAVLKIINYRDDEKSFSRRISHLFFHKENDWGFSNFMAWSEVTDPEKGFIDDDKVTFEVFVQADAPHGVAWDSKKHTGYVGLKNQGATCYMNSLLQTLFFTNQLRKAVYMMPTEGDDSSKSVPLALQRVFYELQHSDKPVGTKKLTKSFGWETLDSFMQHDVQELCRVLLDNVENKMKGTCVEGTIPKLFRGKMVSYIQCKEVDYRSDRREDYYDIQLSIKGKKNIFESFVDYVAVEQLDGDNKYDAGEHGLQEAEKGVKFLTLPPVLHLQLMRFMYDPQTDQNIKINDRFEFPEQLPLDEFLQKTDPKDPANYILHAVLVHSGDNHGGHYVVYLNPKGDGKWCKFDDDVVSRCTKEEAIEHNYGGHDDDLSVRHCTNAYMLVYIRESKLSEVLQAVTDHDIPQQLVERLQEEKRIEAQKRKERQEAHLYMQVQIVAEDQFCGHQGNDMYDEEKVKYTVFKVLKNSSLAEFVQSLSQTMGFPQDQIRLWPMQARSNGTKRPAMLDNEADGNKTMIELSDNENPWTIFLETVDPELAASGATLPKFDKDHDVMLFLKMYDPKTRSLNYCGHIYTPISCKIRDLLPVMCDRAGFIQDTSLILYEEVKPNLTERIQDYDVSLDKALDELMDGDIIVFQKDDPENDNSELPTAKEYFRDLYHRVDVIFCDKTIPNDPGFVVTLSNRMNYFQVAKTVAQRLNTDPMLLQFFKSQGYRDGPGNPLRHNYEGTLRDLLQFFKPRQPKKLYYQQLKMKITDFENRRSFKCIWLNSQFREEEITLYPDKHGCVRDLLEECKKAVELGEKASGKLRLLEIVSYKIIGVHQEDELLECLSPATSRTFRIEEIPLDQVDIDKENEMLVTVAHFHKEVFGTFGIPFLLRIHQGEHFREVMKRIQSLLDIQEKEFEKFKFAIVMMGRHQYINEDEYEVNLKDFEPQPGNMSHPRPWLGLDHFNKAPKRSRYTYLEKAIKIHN

Structure (SMILES) | IC50
N#Cc1cc(-c2ccnc3cc(Cn4c(=O)ccn(CC(F)(F)F)c4=O)sc23)c2c(c1)[C@@H]1C[C@@H]1CN2[C@@H]1CNC2(CCC2)C1 [Example 169, (1aS,7bR)-4-(2-((2,6-dioxo-3-(2,2,2-trifluoroethyl)-3,6-dihydropyrimidin-1(2H)-yl)methyl)thieno[3,2-b]pyridin-7-yl)-3-((S)-5-azaspiro[3.4]octan-7-yl)-1a,2,3,7b-tetrahydro-1H-cyclopropa[c]quinoline-6-carbonitrile] | < 10 nM
NC(=O)c1cc(-c2ccnc3cc(Cn4c(=O)ccn(CC(F)(F)F)c4=O)sc23)c2c(c1)[C@@H]1C[C@@H]1CN2[C@@H]1CNC2(CCC2)C1 [Example 170, (1aS,7bR)-4-(2-((2,6-dioxo-3-(2,2,2-trifluoroethyl)-3,6-dihydropyrimidin-1(2H)-yl)methyl)thieno[3,2-b]pyridin-7-yl)-3-((S)-5-azaspiro[3.4]octan-7-yl)-1a,2,3,7b-tetrahydro-1H-cyclopropa[c]quinoline-6-carboxamide] | < 10 nM
CC1(C)C2C(=O)N(Cc3cc4nccc(-c5cc(Cl)cc6c5N([C@@H]5CNC7(CCC7)C5)CCO6)c4s3)C(=O)C21 (stereo partly drawn) [Example 172, 3-((7-(7-chloro-4-((S)-5-azaspiro[3.4]octan-7-yl)-3,4-dihydro-2H-benzo[b][1,4]oxazin-5-yl)thieno[3,2-b]pyridin-2-yl)methyl)-6,6-dimethyl-3-azabicyclo[3.1.0]hexane-2,4-dione] | 10 to 100 nM
O=C1COc2cc(Cl)cc(-c3ccnc4cc(Cn5ncc(C6CC6)cc5=O)sc34)c2N1[C@@H]1CNC2(CCC2)C1 [Example 174, (S)-7-chloro-5-(2-((4-cyclopropyl-6-oxopyridazin-1(6H)-yl)methyl)thieno[3,2-b]pyridin-7-yl)-4-(5-azaspiro[3.4]octan-7-yl)-2H-benzo[b][1,4]oxazin-3(4H)-one] | < 10 nM
O=C1CCC(=O)N1Cc1cc2nccc(-c3cc(Cl)cc4c3N(C3CC5(CCCN5)C3)CCC4)c2s1 (stereo not drawn) [Example 180, 1-((7-(6-chloro-1-(5-azaspiro[3.4]octan-2-yl)-1,2,3,4-tetrahydroquinolin-8-yl)thieno[3,2-b]pyridin-2-yl)methyl)pyrrolidine-2,5-dione] | 10 to 100 nM
O=C1C2CC2C(=O)N1Cc1cc2nccc(-c3cc(Cl)cc4c3N([C@@H]3CN[C@@H](CO)C3)CCC4)c2s1 (stereo partly drawn) [Example 185, 3-((7-(6-chloro-1-((3S,5R)-5-(hydroxymethyl)pyrrolidin-3-yl)-1,2,3,4-tetrahydroquinolin-8-yl)thieno[3,2-b]pyridin-2-yl)methyl)-3-azabicyclo[3.1.0]hexane-2,4-dione] | < 10 nM

Next, values leading:

IC50 | Structure (SMILES)
< 10 nM | Cc1ccnn(Cc2cc3nccc(-c4cc(C(F)(F)F)cc5c4N([C@@H]4CNC6(CCC6)C4)CCO5)c3s2)c1=O [Example 176b, (S)-2-((7-(4-(5-azaspiro[3.4]octan-7-yl)-7-(trifluoromethyl)-3,4-dihydro-2H-benzo[b][1,4]oxazin-5-yl)thieno[3,2-b]pyridin-2-yl)methyl)-4-methylpyridazin-3(2H)-one]
101 to 1000 nM | N#Cc1cc2c(c(-c3ccnc4cc(CN5C(=O)C6CC6C5=O)sc34)c1)N([C@H]1CNC3(CCCC3)C1)CCC2 (stereo partly drawn) [Example 178a, 8-(2-((2,4-dioxo-3-azabicyclo[3.1.0]hexan-3-yl)methyl)thieno[3,2-b]pyridin-7-yl)-1-((R)-1-azaspiro[4.4]nonan-3-yl)-1,2,3,4-tetrahydroquinoline-6-carbonitrile]
< 10 nM | N#Cc1cc2c(c(-c3ccnc4cc(CN5C(=O)C6CC6C5=O)sc34)c1)N([C@@H]1CNC3(CCCC3)C1)CCC2 (stereo partly drawn) [Example 178b, 8-(2-((2,4-dioxo-3-azabicyclo[3.1.0]hexan-3-yl)methyl)thieno[3,2-b]pyridin-7-yl)-1-((S)-1-azaspiro[4.4]nonan-3-yl)-1,2,3,4-tetrahydroquinoline-6-carbonitrile]
